According to patent US10568950B1, “Peptides, combination of peptides and scaffolds for use in immunotherapeutic treatment of various cancers” (Immatics Biotechnologies GmbH, priority 2015, dated 2020):

Columns and labels:
[1] = system: CD8+ T cells of healthy HLA-A*24+ donors; assay: In vitro immunogenicity: priming of CD8+ T cells with aAPCs loaded with HLA-A*24/peptide complexes and anti-CD28, multimer staining; assay type: cell-based, human; settings: for Wells positive [%]: in vitro immunogenicity, HLA-A*24 peptides of Table 12B; for wells: in vitro immunogenicity of HLA class I peptides, share of positive wells, peptides of Table 3 (HLA-A*24 binding)
Experimental: CD8+ T cells were primed using artificial APCs coated with anti-CD28 mAb and HLA-A*24 in complex with SEQ ID NO: 99 peptide (FIG. 5A, left panel), SEQ ID NO: 119 peptide (FIG. 5B, left panel), SEQ ID NO: 142 peptide (FIG. 5C, left panel) and SEQ ID NO: 174 peptide (FIG. 5D, left panel), respectively. After three cycles of stimulation, the detection of peptide-reactive cells was performed by 2D multimer staining with A*24/SEQ ID NO: 99 (A), A*24/SEQ ID NO: 119 (B), A*24/SEQ ID NO: 142 (C) or A*24/SEQ ID NO: 174 (D). Right panels (FIGS. 5A, 5B, 5C and 5D) show control staining of cells stimulated with irrelevant A*24/peptide complexes. Viable singlet cells were gated for CD8+ lymphocytes. Boolean gates helped excluding false-positive events detected with multimers specific for different peptides. Frequencies of specific multimer+ cells among CD8+ lymphocytes are indicated.
In order to obtain information regarding the immunogenicity of the TUMAPs of the present invention, the inventors performed investigations using an in vitro T-cell priming assay based on repeated stimulations of CD8+ T cells with artificial antigen presenting cells (aAPCs) loaded with peptide/MHC complexes and anti-CD28 antibody.
PBMCs and isolated CD8+ lymphocytes were incubated in T-cell medium (TCM) until use consisting of RPMI-Glutamax (Invitrogen, Karlsruhe, Germany) supplemented with 10% heat inactivated human AB serum (PAN-Biotech, Aidenbach, Germany), 100 U/ml Penicillin/100 μg/ml Streptomycin (Cambrex, Cologne, Germany), 1 mM sodium pyruvate (CC Pro, Oberdorla, Germany), 20 μg/ml Gentamycin (Cambrex). 2.5 ng/ml IL-7 (PromoCell, Heidelberg, Germany) and 10 U/ml IL-2 (Novartis Pharma, Nurnberg, Germany) were also added to the TCM at this step.
Generation of pMHC/anti-CD28 coated beads, T-cell stimulations and readout was performed in a highly defined in vitro system using four different pMHC molecules per stimulation condition and 8 different pMHC molecules per readout condition.
The purified co-stimulatory mouse IgG2a anti human CD28 Ab 9.3 (Jung et al., 1987) was chemically biotinylated using Sulfo-N-hydroxysuccinimidobiotin as recommended by the manufacturer (Perbio, Bonn, Germany). Beads used were 5.6 μm diameter streptavidin coated polystyrene particles (Bangs Laboratories, Illinois, USA).
800.000 beads/200 μl were coated in 96-well plates in the presence of 4×12.5 ng different biotin-pMHC, washed and 600 ng biotin anti-CD28 were added subsequently in a volume of 200 μl. Stimulations were initiated in 96-well plates by co-incubating […] CD8+ T cells with 2×10^5 washed coated beads in 200 μl TCM supplemented with 5 ng/ml IL-12 (PromoCell) for 3 days at 37° C. Half of the medium was then exchanged by fresh TCM supplemented with 80 U/ml IL-2 and incubating was continued for 4 days at 37° C. This stimulation cycle was performed for a total of three times. For the pMHC multimer readout using 8 different pMHC molecules per condition, a two-dimensional combinatorial coding approach was used as previously described (Andersen et al., 2012) with minor modifications encompassing coupling to 5 different fluorochromes. Finally, multimeric analyses were performed by staining the cells with Live/dead near IR dye (Invitrogen, Karlsruhe, Germany), CD8-FITC antibody clone SKI (BD, Heidelberg, Germany) and fluorescent pMHC multimers. For analysis, a BD LSRII SORP cytometer equipped with appropriate lasers and filters was used. Peptide specific cells were calculated as percentage of total CD8+ cells. Evaluation of multimeric analysis was done using the FlowJo software (Tree Star, Oreg., USA). In vitro priming of specific multimer+ CD8+ lymphocytes was detected by comparing to negative control stimulations.

HLA-A*24 = assay: MHC binding assay: UV-ligand exchange, beta2m ELISA (peptide exchange yield); parameters: species or system human; settings: binding to HLA-A*24, β2m ELISA
Description: Candidate peptides for T cell based therapies according to the present invention were further tested for their MHC binding capacity (affinity). The individual peptide-MHC complexes were produced by UV-ligand exchange, where a UV-sensitive peptide is cleaved upon UV-irradiation, and exchanged with the peptide of interest as analyzed. Only peptide candidates that can effectively bind and stabilize the peptide-receptive MHC molecules prevent dissociation of the MHC complexes. To determine the yield of the exchange reaction, an ELISA was performed based on the detection of the light chain (β2m) of stabilized MHC complexes. The assay was performed as generally described in Rodenko et al. (Rodenko et al., 2006).
96 well MAXISorp plates (NUNC) were coated over night with 2 ug/ml streptavidin in PBS at room temperature, washed 4× and blocked for 1 h at 37° C. in 2% BSA containing blocking buffer. […] Peptide-MHC monomers of the UV-exchange reaction were diluted 100 fold in blocking buffer. Samples were incubated for 1 h at 37° C., washed four times, incubated with 2 ug/ml HRP conjugated anti-βm for 1 h at 37° C., washed again and detected with TMB solution that is stopped with […]. Absorption was measured at 450 nm. Candidate peptides that show a high exchange yield (preferably higher than 50%, most preferred higher than 75%) are generally preferred for a generation and production of antibodies or fragments thereof, and/or T cell receptors or fragments thereof, as they show sufficient avidity to the MHC molecules and prevent dissociation of the MHC complexes.

Peptide exchange (MHC class I binding score, peptide exchange yield) (HLA-A*24) | Substance | Wells positive [%] [1] | wells [1]
++++ (>= 75% = ++++) | 96 (YYTQYSQTI; listed as Homo sapiens) [compound 96] | + (<20% = +) | 
++++ (>= 75% = ++++) | 99 (QYILAVPVL; listed as Homo sapiens) [compound 99] | +++ (50%-69% = +++) | 
++++ (>= 75% = ++++) | 104 (SYLTWHQQI; listed as Homo sapiens) [compound 104] | + (<20% = +) | 
++++ (>= 75% = ++++) | 109 (LFITGGQFF; listed as Homo sapiens) [compound 109] | ++ (20%-49% = ++) | 
++++ (>= 75% = ++++) | 114 (QYLDGTWSL; listed as Homo sapiens) [compound 114] | +++ (50%-69% = +++) | 
++++ (>= 75% = ++++) | 120 (GYIEHFSLW; listed as Homo sapiens) [compound 120] | ++ (20%-49% = ++) | 
++++ (>= 75% = ++++) | 132 (RYPALFPVL; listed as Homo sapiens) [compound 132] | + (<20% = +) | 
++++ (>= 75% = ++++) | 137 (EYLHNCSYF; listed as Homo sapiens) [compound 137] | + (<20% = +) | 
++++ (>= 75% = ++++) | 140 (RYLINSYDF; listed as Homo sapiens) [compound 140] | +++ (50%-69% = +++) | 
++++ (>= 75% = ++++) | 144 (VFASLPGFLF; listed as Homo sapiens) [compound 144] | ++ (20%-49% = ++) | 
++++ (>= 75% = ++++) | 155 (IYKWITDNF; listed as Homo sapiens) [compound 155] | ++ (20%-49% = ++) | 
++++ (>= 75% = ++++) | 156 (YYMELTKLLL; listed as Homo sapiens) [compound 156] | + (<20% = +) | 
++++ (>= 75% = ++++) | 163 (RYLTISNLQF; listed as Homo sapiens) [compound 163] | + (<20% = +) | 
 | 164 (HYVPATKVF; listed as Homo sapiens) [compound 164] | + (<20% = +) | 
++++ (>= 75% = ++++) | 166 (FYTLPFHLI; listed as Homo sapiens) [compound 166] | ++++ (>= 70 % = ++++) | 
 | 167 (RYGFYYVEF; listed as Homo sapiens) [compound 167] | ++++ (>= 70 % = ++++) | 
 | 168 (RYLEAALRL; listed as Homo sapiens) [compound 168] | +++ (50%-69% = +++) | 
 | 171 (NYEDHFPLL; listed as Homo sapiens) [compound 171] | ++ (20%-49% = ++) | 
 | 174 (VYEKNGYIYF; listed as Homo sapiens) [compound 174] | ++++ (>= 70 % = ++++) | 
 | 175 (LYSPVPFTL; listed as Homo sapiens) [compound 175] | + (<20% = +) | 
 | 177 (VYFKAGLDVF; listed as Homo sapiens) [compound 177] | + (<20% = +) | 
 | 179 (TYIPVGLGRLL; listed as Homo sapiens) [compound 179] | +++ (50%-69% = +++) | 

Peptide exchange (MHC class I binding score, peptide exchange yield) (HLA-A*24) | Substance | Wells positive [%] [1] | wells [1]
 | 180 (KYLQVVGMF; listed as Homo sapiens) [compound 180] | + (<20% = +) | 
 | 181 (VYPPYLNYL; listed as Homo sapiens) [compound 181] | ++++ (>= 70 % = ++++) | 
 | 190 (LYSELTETL; listed as Homo sapiens) [compound 190] | ++++ (>= 70 % = ++++) | 
 | 277 (FYTFPFQQL; listed as Homo sapiens) [compound 277] | +++ (50%-69% = +++) | 
 | 344 (EYNSDLHQF; listed as Homo sapiens) [compound 344] | + (<20% = +) | 
 | 345 (EYNSDLHQFF; listed as Homo sapiens) [compound 345] | ++ (20%-49% = ++) | 
 | 349 (QYSIISNVF; listed as Homo sapiens) [compound 349] | ++ (20%-49% = ++) | 
 | 350 (KYGNFIDKL; listed as Homo sapiens) [compound 350] | +++ (50%-69% = +++) | 
 | 351 (IFHEVPLKF; listed as Homo sapiens) [compound 351] | ++ (20%-49% = ++) | 
 | 353 (TYGKIDLGF; listed as Homo sapiens) [compound 353] | + (<20% = +) | 
 | 354 (VYNEQIRDLL; listed as Homo sapiens) [compound 354] | + (<20% = +) | 
 | 358 (YYSEVPVKL; listed as Homo sapiens) [compound 358] | ++++ (>= 70 % = ++++) | 
 | 360 (VFSPDGHLF; listed as Homo sapiens) [compound 360] | ++ (20%-49% = ++) | 
 | 363 (SYAELGTTI; listed as Homo sapiens) [compound 363] | + (<20% = +) | 
 | 366 (QYLELAHSL; listed as Homo sapiens) [compound 366] | ++ (20%-49% = ++) | 
 | 367 (LYQDHMQYI; listed as Homo sapiens) [compound 367] | ++ (20%-49% = ++) | 
 | 371 (AYSHLRYVF; listed as Homo sapiens) [compound 371] | ++ (20%-49% = ++) | 
 | 393 (KYIEAIQWI; listed as Homo sapiens) [compound 393] |  | ++ (20%-49% = ++)
 | 399 (SYIDVLPEF; listed as Homo sapiens) [compound 399] |  | ++ (20%-49% = ++)
 | 400 (KYLEKYYNL; listed as Homo sapiens) [compound 400] |  | ++ (20%-49% = ++)
 | 407 (VYGIRLEHF; listed as Homo sapiens) [compound 407] |  | +++ (50%-69% = +++)
 | 414 (MYPYIYHVL; listed as Homo sapiens) [compound 414] |  | ++ (20%-49% = ++)
